Measurements: the supplement of paper PMC10307832

What was measured:
Assay in all cases: relative viability (nuclei count vs DMSO), 5 days (fraction); higher = more cells survive
[1] = compound: COc1nc(N)nc2c1ncn2[C@@H]1O[C@H](CO)[C@@H](O)[C@@H]1O [Nelarabine] + NC(=O)Nc1cc(-c2cccc(F)c2)sc1C(=O)N[C@H]1CCCNC1 [AZD7762] (partner 0.2 µM)
How it was run: (§1)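 A single step with final 0.05% Triton X-100, 1% formaldehyde and 1 ug/ml Hoechst fixed the cells and stained nuclei 5 days after treatment. Lung cancer cell lines in 1536-well plates had been treated by pin tool the day after seeding with one drug alone or a fixed anchor-drug dose plus five library-drug doses (not always all listed) in √10 steps, and nuclei were counted on 4× images. Relative viability is the ratio of nuclei in treated wells to nuclei in vehicle wells, taken as the median of duplicate plates.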

[2] = compound: COc1nc(N)nc2c1ncn2[C@@H]1O[C@H](CO)[C@@H](O)[C@@H]1O [Nelarabine] + N=C(N)NC(=N)NCCc1ccccc1 [Phenformin] (partner 250 µM)
How it was run: as §1

[3] = compound: C=CCn1c(=O)c2cnc(Nc3ccc(N4CCN(C)CC4)cc3)nc2n1-c1cccc(C(C)(C)O)n1 [Adavosertib] + CC(C)C[C@H](NC(=O)[C@H](Cc1ccccc1)NC(=O)c1cnccn1)B(O)O [Bortezomib] (partner 0.002 µM)
How it was run: as §1

[4] = compound: C=CCn1c(=O)c2cnc(Nc3ccc(N4CCN(C)CC4)cc3)nc2n1-c1cccc(C(C)(C)O)n1 [Adavosertib] + O=C(CCCCCCC(=O)Nc1ccccc1)NO [Vorinostat] (partner 1 µM)
How it was run: as §1

Row | Cell Line | relative viability ([1]; first compound 0.01 µM) | relative viability ([1]; first compound 0.03162 µM) | relative viability ([1]; first compound 0.1 µM) | relative viability ([1]; first compound 0.3162 µM) | relative viability ([1]; first compound 1 µM) | relative viability ([2]; first compound 0.01 µM) | relative viability ([2]; first compound 0.03162 µM) | relative viability ([2]; first compound 0.1 µM) | relative viability ([2]; first compound 0.3162 µM) | relative viability ([2]; first compound 1 µM) | relative viability ([3]; first compound 0.01 µM) | relative viability ([3]; first compound 0.03162 µM) | relative viability ([3]; first compound 0.1 µM) | relative viability ([3]; first compound 0.3162 µM) | relative viability ([4]; first compound 0.01 µM) | relative viability ([4]; first compound 0.03162 µM) | relative viability ([4]; first compound 0.1 µM) | relative viability ([4]; first compound 0.3162 µM)
1 | NCI-H650 | 0.75 | 0.991 | 0.915 | 0.932 | 0.943 | 0.505 | 0.425 | 0.46 | 0.457 | 0.461 | 0.597 | 0.795 | 1.07 | 0.663 | 0.367 | 0.428 | 0.443 | 0.333
2 | LU99A | 0.365 | 0.284 | 0.335 | 0.312 | 0.424 | 0.88 | 0.767 | 0.837 | 0.864 | 0.854 | 1.34 | 0.998 | 1.09 | 0.827 | 0.485 | 0.486 | 0.462 | 0.307
3 | EPLC-272H | 0.196 | 0.209 | 0.305 | 0.247 | 0.297 | 0.236 | 0.291 | 0.272 | 0.265 | 0.291 | 0.959 | 0.805 | 0.866 | 0.732 | 0.384 | 0.481 | 0.281 | 0.14
4 | NCI-H2087 | 1.72 | 1.42 | 1.37 | 1.51 | 1.21 | 0.577 | 0.408 | 0.397 | 0.457 | 0.569 | 0.883 | 0.894 | 1.05 | 0.918 | 0.812 | 0.637 | 0.702 | 0.826
5 | HCC-827 | 0.203 | 0.208 | 0.158 | 0.175 | 0.163 | 0.373 | 0.378 | 0.308 | 0.352 | 0.443 | 1.02 | 1.04 | 1.06 | 1.06 | 0.716 | 0.868 | 0.873 | 0.885
6 | ABC-1 |  | 0.839 | 0.766 | 0.845 | 0.78 | 0.216 | 0.212 | 0.258 | 0.231 | 0.229 | 0.247 | 0.329 | 0.255 | 0.332 | 1.17 | 1.26 | 1.1 | 1.44
7 | NCI-H1734 | 0.699 | 0.5 | 0.484 | 0.603 | 0.531 | 0.446 | 0.388 | 0.412 | 0.366 | 0.38 | 1.01 | 1.01 | 1.02 | 0.696 | 0.923 | 0.865 | 0.622 | 0.33
8 | NCI-H1993 | 0.845 | 0.438 | 0.642 | 0.841 | 0.692 | 0.527 | 0.486 | 0.448 | 0.499 | 0.503 | 0.94 | 0.962 | 1.09 | 1.11 | 0.725 | 0.791 | 0.84 | 1.05
